ChEMBL document CHEMBL1201862, “PubChem BioAssay data set” (2004)
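Exposure lasted 48 hours, with cells grown in 96-well plates and compounds tested at five concentrations. GI50 marks 50% less growth.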 The source made the active and inactive calls. Rule as the data show it: active = GI50 up to about 1.1 µM and inactive = higher.

What was measured:
Experiment in all cases: NCI tumour cell line growth inhibition, 48 h
786-0 = system: 786-0
A549 = system: A549
ACHN = system: ACHN
BT-549 = system: BT-549
CAKI-1 = system: CAKI-1
CCRF-CEM = system: CCRF-CEM
COLO 205 = system: COLO 205
DU-145 = system: DU-145
EKVX = system: EKVX
HCC 2998 = system: HCC 2998
HCT-116 = system: HCT-116
HCT-15 = system: HCT-15
HL-60 = system: HL-60
HOP-62 = system: HOP-62
HOP-92 = system: HOP-92
HT-29 = system: HT-29
Hs-578T = system: Hs-578T
IGROV-1 = system: IGROV-1
K562 = system: K562
KM12 = system: KM12
LOX IMVI = system: LOX IMVI
M14 = system: M14
MCF7 = system: MCF7
MDA-MB-231 = system: MDA-MB-231
MDA-MB-435 = system: MDA-MB-435
MDA-N = system: MDA-N
MOLT-4 = system: MOLT-4
Malme-3M = system: Malme-3M
NCI-H226 = system: NCI-H226
NCI-H23 = system: NCI-H23
NCI-H460 = system: NCI-H460
NCI-H522 = system: NCI-H522
NCI/ADR-RES = system: NCI/ADR-RES
OVCAR-3 = system: OVCAR-3
OVCAR-4 = system: OVCAR-4
OVCAR-5 = system: OVCAR-5
OVCAR-8 = system: OVCAR-8
PC-3 = system: PC-3
SF-268 = system: SF-268
SF-295 = system: SF-295
SF-539 = system: SF-539
SK-MEL-28 = system: SK-MEL-28
SK-OV-3 = system: SK-OV-3
SN12C = system: SN12C
SNB-19 = system: SNB-19
SR = system: SR
SW-620 = system: SW-620
T47D = system: T47D
TK-10 = system: TK-10
U-251 = system: U-251
UACC-257 = system: UACC-257
UACC-62 = system: UACC-62
UO-31 = system: UO-31
A498 = system: A498
RPMI-8226 = system: RPMI-8226
SK-MEL-2 = system: SK-MEL-2
SK-MEL-5 = system: SK-MEL-5
SNB-75 = system: SNB-75
RXF 393 = system: RXF 393

## COC(=O)C1=C(C)C(=O)[C@]23C(CCCC[C@H]12)C(=O)[C@H](C(=O)OC)C3C (stereo not given in full)
786-0
  GI50: > 100 µM (inactive)
A549
  GI50: > 100 µM (inactive)
ACHN
  GI50: > 100 µM (inactive)
BT-549
  GI50: > 100 µM (inactive)
CAKI-1
  GI50: > 100 µM (inactive)
CCRF-CEM
  GI50: > 100 µM (inactive)
COLO 205
  GI50: > 100 µM (inactive)
DU-145
  GI50: > 100 µM (inactive)
EKVX
  GI50: > 100 µM (inactive)
HCC 2998
  GI50: > 100 µM (inactive)
HCT-116
  GI50: > 100 µM (inactive)
HCT-15
  GI50: > 100 µM
HL-60
  GI50: > 100 µM (inactive)
HOP-62
  GI50: > 100 µM (inactive)
HOP-92
  GI50: > 100 µM (inactive)
HT-29
  GI50: > 100 µM (inactive)
Hs-578T
  GI50: > 100 µM (inactive)
IGROV-1
  GI50: > 100 µM (inactive)
K562
  GI50: > 100 µM (inactive)
KM12
  GI50: > 100 µM (inactive)
LOX IMVI
  GI50: > 100 µM (inactive)
M14
  GI50: > 100 µM (inactive)
MCF7
  GI50: > 100 µM (inactive)
MDA-MB-231
  GI50: > 100 µM (inactive)
MDA-MB-435
  GI50: > 100 µM (inactive)
MDA-N
  GI50: > 100 µM (inactive)
MOLT-4
  GI50: > 100 µM (inactive)
Malme-3M
  GI50: > 100 µM (inactive)
NCI-H226
  GI50: > 100 µM (inactive)
NCI-H23
  GI50: > 100 µM (inactive)
NCI-H460
  GI50: > 100 µM (inactive)
NCI-H522
  GI50: > 100 µM (inactive)
NCI/ADR-RES
  GI50: > 100 µM (inactive)
OVCAR-3
  GI50: > 100 µM (inactive)
OVCAR-4
  GI50: > 100 µM (inactive)
OVCAR-5
  GI50: > 100 µM (inactive)
OVCAR-8
  GI50: > 100 µM (inactive)
PC-3
  GI50: > 100 µM (inactive)
SF-268
  GI50: > 100 µM (inactive)
SF-295
  GI50: > 100 µM (inactive)
SF-539
  GI50: > 100 µM (inactive)
SK-MEL-28
  GI50: > 100 µM (inactive)
SK-OV-3
  GI50: > 100 µM (inactive)
SN12C
  GI50: > 100 µM (inactive)
SNB-19
  GI50: > 100 µM (inactive)
SR
  GI50: 50.9 µM (inactive)
SW-620
  GI50: > 100 µM (inactive)
T47D
  GI50: > 100 µM (inactive)
TK-10
  GI50: > 100 µM (inactive)
U-251
  GI50: > 100 µM (inactive)
UACC-257
  GI50: > 100 µM (inactive)
UACC-62
  GI50: > 100 µM (inactive)
UO-31
  GI50: > 100 µM (inactive)

## COC(=O)c1ccc(OCc2ccc3nc(-c4ccccc4)c(Cl)nc3c2)cc1
786-0
  GI50: 21 µM (inactive)
A498
  GI50: > 100 µM (inactive)
A549
  GI50: 86.9 µM (inactive)
ACHN
  GI50: 48.8 µM (inactive)
BT-549
  GI50: > 100 µM (inactive)
CAKI-1
  GI50: 28.6 µM (inactive)
CCRF-CEM
  GI50: > 100 µM (inactive)
COLO 205
  GI50: 76.2 µM (inactive)
DU-145
  GI50: > 100 µM (inactive)
EKVX
  GI50: > 100 µM (inactive)
HCC 2998
  GI50: > 100 µM (inactive)
HCT-116
  GI50: 83 µM (inactive)
HCT-15
  GI50: > 100 µM
HL-60
  GI50: 40.6 µM (inactive)
HOP-62
  GI50: 29.4 µM (inactive)
HOP-92
  GI50: 28.1 µM (inactive)
HT-29
  GI50: > 100 µM (inactive)
Hs-578T
  GI50: 30.1 µM (inactive)
IGROV-1
  GI50: 85.5 µM (inactive)
KM12
  GI50: > 100 µM (inactive)
LOX IMVI
  GI50: > 100 µM (inactive)
M14
  GI50: > 100 µM (inactive)
MCF7
  GI50: > 100 µM (inactive)
MDA-MB-231
  GI50: 23.2 µM (inactive)
MDA-MB-435
  GI50: 74.8 µM (inactive)
MDA-N
  GI50: > 100 µM (inactive)
MOLT-4
  GI50: 91.6 µM (inactive)
NCI-H23
  GI50: 47.2 µM (inactive)
NCI-H460
  GI50: > 100 µM (inactive)
NCI-H522
  GI50: 11.8 µM (inactive)
NCI/ADR-RES
  GI50: 65.2 µM (inactive)
OVCAR-3
  GI50: > 100 µM (inactive)
OVCAR-4
  GI50: 62.1 µM (inactive)
OVCAR-5
  GI50: > 100 µM (inactive)
OVCAR-8
  GI50: 48 µM (inactive)
PC-3
  GI50: > 100 µM (inactive)
RPMI-8226
  GI50: > 100 µM (inactive)
SF-268
  GI50: 42.9 µM (inactive)
SF-295
  GI50: 46 µM (inactive)
SF-539
  GI50: 33.1 µM (inactive)
SK-MEL-28
  GI50: > 100 µM (inactive)
SK-MEL-2
  GI50: 84.7 µM (inactive)
SK-MEL-5
  GI50: 76.6 µM (inactive)
SN12C
  GI50: > 100 µM (inactive)
SNB-19
  GI50: 92.5 µM (inactive)
SNB-75
  GI50: 22.9 µM (inactive)
SR
  GI50: > 100 µM (inactive)
SW-620
  GI50: > 100 µM (inactive)
T47D
  GI50: > 100 µM (inactive)
TK-10
  GI50: 58.2 µM (inactive)
U-251
  GI50: 27.7 µM (inactive)
UACC-257
  GI50: > 100 µM (inactive)
UACC-62
  GI50: > 100 µM (inactive)
UO-31
  GI50: > 100 µM (inactive)

## CCCCOCCOCCOC1=CC(=O)c2c(O)ccc(O)c2C1=O
786-0
  GI50: 1.6 µM (inactive)
A549
  GI50: 1.8 µM (inactive)
ACHN
  GI50: 1.66 µM (inactive)
BT-549
  GI50: 1.77 µM (inactive)
CAKI-1
  GI50: 1.95 µM (inactive)
CCRF-CEM
  GI50: 2.14 µM (inactive)
COLO 205
  GI50: 1.4 µM (inactive)
DU-145
  GI50: 1.7 µM (inactive)
EKVX
  GI50: 5.19 µM (inactive)
HCC 2998
  GI50: 1.82 µM (inactive)
HCT-116
  GI50: 1.76 µM (inactive)
HL-60
  GI50: 2.27 µM (inactive)
HOP-62
  GI50: 1.79 µM (inactive)
HOP-92
  GI50: 2.9 µM (inactive)
Hs-578T
  GI50: 2.55 µM (inactive)
IGROV-1
  GI50: 1.89 µM (inactive)
K562
  GI50: 2.5 µM (inactive)
KM12
  GI50: 1.83 µM (inactive)
LOX IMVI
  GI50: 1.86 µM (inactive)
M14
  GI50: 1.51 µM (inactive)
MCF7
  GI50: 1.75 µM (inactive)
MDA-MB-231
  GI50: 1.73 µM (inactive)
MDA-MB-435
  GI50: 0.188 µM (active)
MDA-N
  GI50: 0.167 µM (active)
MOLT-4
  GI50: 2.65 µM (inactive)
Malme-3M
  GI50: 0.4 µM (active)
NCI-H226
  GI50: 2.01 µM (inactive)
NCI-H23
  GI50: 1.82 µM (inactive)
NCI-H460
  GI50: 1.95 µM (inactive)
NCI-H522
  GI50: 1.63 µM (inactive)
NCI/ADR-RES
  GI50: 2.14 µM (inactive)
OVCAR-3
  GI50: 1.61 µM (inactive)
OVCAR-4
  GI50: 1.94 µM (inactive)
PC-3
  GI50: 3 µM (inactive)
RPMI-8226
  GI50: 2.4 µM (inactive)
RXF 393
  GI50: 1.94 µM (inactive)
SF-268
  GI50: 4.26 µM (inactive)
SF-295
  GI50: 1.68 µM (inactive)
SF-539
  GI50: 2.03 µM (inactive)
SK-MEL-28
  GI50: 1.53 µM (inactive)
SK-MEL-2
  GI50: 1.9 µM (inactive)
SK-MEL-5
  GI50: 1.05 µM (active)
SK-OV-3
  GI50: > 10 µM (inactive)
SN12C
  GI50: 1.82 µM (inactive)
SNB-19
  GI50: 1.79 µM (inactive)
SR
  GI50: 2.7 µM (inactive)
SW-620
  GI50: 1.57 µM (inactive)
T47D
  GI50: 2.65 µM (inactive)
TK-10
  GI50: 3.05 µM (inactive)
U-251
  GI50: 1.85 µM (inactive)
UACC-257
  GI50: 1.58 µM (inactive)
UACC-62
  GI50: 1.82 µM (inactive)
UO-31
  GI50: 1.58 µM (inactive)
